The values below are quoted from earlier work in patent US12137716B2, “Methods of liver disease treatment” (priority 2015, dated 2024).

Entries after “also recorded” stand apart in the source; their conditions may differ.

The subject of series [1] is mice fed either a MCD or MD diet.
The subject of another series is NASH model mice. To be noted: NASH mouse model.
A further series deals with patients with severe ALD. To be noted: added to corticosteroids.
The subject of series [2] is ethanol-induced fibrotic mouse model.
Series [3] has as its system rats and baboons fed ethanol.
The conditions of series [4]: oral administration.
Series [5] has as its system patients with both alcoholic and non-alcoholic liver diseases. To be noted: patients with liver disease.
Series [6] has as its system CCl (4) induced cirrhosis. To be noted: CCl4 induced.

For `N=C(N)NCCC[C@H](N)C(=O)O` [Arginine], the “hepatic microcirculation and tissue oxygenation” value in the series with patients with cirrhosis is “improves hepatic microcirculation and tissue oxygenation”.
Regarding `N[C@@H](CCC(=O)N[C@@H](CS)C(=O)NCC(=O)O)C(=O)O` [GSH, Glutathione], in [1], the “GSH in the mitochondria” value was “restored GSH in the mitochondria” and the hepatocellular injury result is “ameliorated hepatocellular injury”.
Regarding `C[N+](C)(C)C[C@H](O)CC(=O)[O-]` [L-Carnitine], the “progression of NASH” value with NASH model mice is given as “prevents progression of NASH”.
In the case of `CC(=O)N[C@@H](CS)C(=O)O` [NAC, N-acetylcysteine], in the series with ethanol-fed rats, the “hepatic fatty acid accumulation” value is “decrease hepatic fatty acid accumulation” and the inflammatory markers entry was “decrease inflammatory markers”. Besides, in the series on patients with severe ALD, the “hepatorenal syndrome, infection, short-term mortality” value is “decrease hepatorenal syndrome, infection, and short-term mortality”.
On to `C[S+](CC[C@H](N)C(=O)O)C[C@H]1O[C@@H](n2cnc3c(N)ncnc32)[C@H](O)[C@@H]1O` (stereo partly drawn) [SAMe, S-adenosylmethionine], for which, in [2], the “oxidative stress and hepatic stellate cell activation” value is “attenuate oxidative stress and hepatic stellate cell activation”. Besides, in [3] (ethanol-fed), the “hepatic GSH levels” value is listed as “restored hepatic GSH levels”; the “mitochondrial lesions and leakage” value is “positive effect on mitochondrial lesions and leakage”. The oral bioavailability result in series [4] was “low bioavailability”. In addition, in series [1], the “GSH in the mitochondria” value is listed as “restored GSH in the mitochondria” and the hepatocellular injury entry is “ameliorated hepatocellular injury”. Moreover, in [5], the hepatic glutathione levels entry is given as “significant increase; also recorded: increases hepatic GSH”.
`COc1cc(/C=C/C(=O)CC(=O)/C=C/c2ccc(O)c(OC)c2)ccc1O` [curcumin, Curcumin]: in series [6], the cirrhosis entry is recorded as “reverses”.
On to Phosphatidylcholine [PC], for which the liver injury result in series [3] (CCl4 and ethanol-induced) was “attenuated CCI4 and ethanol-induced liver injury”. The procollagen-III-peptide levels entry in the series with HBV patients is reported as “reduced levels”. In addition, in the series with HCV patients, the albumin-bound hydroxyproline levels entry was “decreased levels”.
